The text below walks through data of patent US11440904B2, “Substituted pyrimidines, pharmaceutical compositions and therapeutic methods thereof” (priority 2017, dated 2022).

One assay addresses BMX (Homo sapiens (Human), UniProt P51813). The assay is described as follows: 33P ATP HotSpot kinase assay, BMX. It counts as biochemical. Particulars: 10 μM ATP. Here is the method: (§1) (See, e.g., Ma, et al, 2008 Expert Opin Drug Discov. 3(6): 607-621.)
(§2) Each of Compound-1 to Compound-24 was measured for its inhibitory activity on TEC family kinases, BMX and ITK. The measurement was carried out in the same process as described above, BMX, ITK enzymes were used.

Assay [1] deals with BTK phosphorylation at tyrosine 223 (Homo sapiens (Human), UniProt Q06187). The assay is described as follows: Immunoblot analysis of phospho-BTK(Y223) in Ramos cells. It counts as cell-based. Particulars: 1 hr treatment, anti-IgM stimulation, western blot. Here is the method:
Ramos cells were cultured in RPMI-1640 medium with 10% fetal bovine serum (FBS) and 1% penicillin/streptomycin (Gibco BRL). Before the assay, Ramos cells were counted and seeded at 1×10^6 cells/mL, cultured overnight in RPMI-1640 medium with 10% FBS, the cells were centrifuged at 950 rpm for 10 min., then 1˜2×10^6 cells were split into each tube in 300 μL medium. The cells were treated with certain compounds of Compound 1-24 at 0˜3 μM for 1 hr. in 37° C., then the cells were stimulated with 10 μg/mL of anti-IgM (BioLegend) for 5 min., followed by 3 min. spin at 2000 rpm. After aspirating the supernatant, 60 μL of RIPA lysis buffer (50 mM Tris-HCl, 1 mM EDTA, 1% NP-40, 0.5% sodium deoxycholate, and 0.1% SDS, pH 7.4, 150 mM NaCl, 1 mM Na3VO4) was added to the cell pellet to lyse the cells on ice for 30 min. After spin at 10,000 rpm for 5 min., 60 μL of the cell lysate was transferred to a fresh tube, and 20 μL of 4× LDS buffer was added to the tube. The samples were boiled on a 100° C. heat block for 10 min. 25 μL lysate was loaded on to SDS-PAGE gel (NuPAGE™ Novex™ 4-12% Bis-Tris Midi Protein Gels, cat. no. WG1402BOX, ThermoFisher) for western blotting analysis per the manufacturer's instructions. Antibodies used for immunoblot analysis include Btk and p-Btk(Y223) (cat. no. 3553 and 5082; Cell Signaling Technology, Beverly, Mass.). p-Btk(Y223) (cat. no. GTX61791; GeneTex, Inc., Irvine, Calif.). Membranes were detected using infrared fluorescence dye (IRDye® 800CW Donkey anti-Rabbit IgG (H+L), cat. no. P/N 925-32213; IRDye® 680RD Donkey anti-Mouse IgG (H+L), cat. no. P/N 925-68072 and scanned on a LiCor Odyssey scanner (LiCor Biosciences, Lincoln, Nebr.).

The target in the next assay is ITK (Homo sapiens (Human), UniProt Q08881). The experiment in a line: 33P ATP HotSpot kinase assay, ITK. It counts as biochemical. Particulars: 10 μM ATP. Here is the method:
as §1, §2

For another assay, the target named is EGFR wt (Homo sapiens (Human), UniProt P00533). The assay is described as follows: 33P ATP HotSpot kinase assay, EGFR wt. To be noted: 10 μM ATP. It counts as biochemical.
The next assay concerns MDA-MB-231 cells. The assay is described as follows: Cancer cell growth inhibition, MDA-MB-231. To be noted: Homo sapiens, 72 hr, cell viability. It counts as cell-based. Here is the method: (§3) In order to test certain compounds of Compounds 1 to 24 for cancer cell growth inhibition, a leukemia cancer cell line EOL-1, and triple negative breast cancer cell line MDA-MB-231 was used.
(§4) EOL-1 and MDA-MB-231 cells were cultured in a RPMI-1640 cell culture medium supplemented with 10% fetal bovine serum (FBS) and 1% penicillin/streptomycin (Gibco BRL).
(§5) The cancer cell lines stored in a liquid nitrogen tank were each quickly thawed at 37° C. water bath, and centrifuged to remove the DMSO in the freezing medium. The resulting cell pellet was mixed with a culture medium, incubated in a culture flask at 37° C. under 5% CO2 for 2 to 3 days. The EOL-1 cells were sub-cultured by 1:5˜10 dilution in fresh culture medium. For MD-MB-231 cells, the culture medium was removed and the remaining cells were washed with PBS (Phosphate Buffered Saline) and trypsinized by trypsin-EDTA. The detached cells were sub-cultured by 1:5˜10 dilution in fresh culture medium.
(§6) For the cell growth inhibition assay, the cells were seeded in 96-well cell culture plates at 5×10^4 cells/well for EOL-1 and 5×10^3 cells/well for MDA-MB-231 cells in 50 μL and incubated at 37° C. under 5% CO2 for 3 to 6 hr. before the compounds were added.
(§7) Certain compounds of Compounds 1-24 were dissolved in dimethylsulfoxide (DMSO) to a concentration of 10 mM. The DMSO solution containing test compound was diluted with a culture medium to a final concentration of 600 μM, and then diluted 100 times to 6 μM as top dose followed by 1:3 serial dilutions, and then add 50 μL diluted compounds to the 50 μL cells, with a final top dose at 3 μM and the plate was incubated at 37° C. under 5% CO2 for 72 hr. The cell viability was determined by Cell Meter™ Fluorimetric Cell Cytotoxicity Assay Kit (AAT Bioquest) according to the manufacturer's instructions. Briefly, thaw and warm up the Assay Solution (Component A) to 37° C., and mix it thoroughly. Add 20 μL/well (96-well plate) of Assay Solution (Component A). Mix the reagents by shaking the plate gently for 30 seconds. Incubate the cells in a 37° C., 5% CO2 incubator for 1-24 hr., protected from light. Monitor the fluorescence intensity (bottom read) at Ex/Em=540/590 nm. Alternatively, read the O.D. at 570 nm (the reference wavelength should be 600 nm) to determine the cell viability in each well.

The target in another assay is FAK (Homo sapiens (Human), UniProt Q05397). The experiment in a line: 33P ATP HotSpot kinase assay, FAK. Particulars: read-out: IC50 FAK, 10 μM ATP.
Another assay addresses BTK wt (Homo sapiens (Human), UniProt Q06187). The assay is described as follows: 33P ATP HotSpot kinase assay, BTK wt. It counts as biochemical. To be noted: 10 μM ATP.
Text: as §1

In a further assay the test system is EOL-1 cells. The experiment in a line: Cancer cell growth inhibition, EOL-1. It counts as cell-based. Particulars: Homo sapiens, EOL1, 72 hr, cell viability. Here is the method:
as §3, §4, §5, §6, §7

Assay [2] addresses FAK phosphorylation at tyrosine 397 (Homo sapiens (Human), UniProt Q05397). The assay is described as follows: Cell-based FAK(Y397) phosphorylation ELISA in PC3 cells. To be noted: 1 hr treatment, read-out: EC50 phospho-FAK(Y397).
Experimental: After aspirating the supernatant, 100 μL of RIPA lysis buffer (50 mM Tris-HCl, 1 mM EDTA, 1% NP-40, 0.5% sodium deoxycholate, and 0.1% SDS, pH 7.4, 150 mM NaCl, 1 mM Na3VO4) was added to the cell pellet to lyse the cells on ice for 30 min. After spin at 12,000 rpm for 5 min., 90 μL of the cell lysate was transferred to a fresh tube.
For an enzyme-linked immunosorbent assay (ELISA) assay, 10 μL of the lysate was used for p-FAK(Y397) elisa assay. ELISA was done using the FAK [pY397] Phospho-ELISA Kit (ThermoFisher Scientific, KHO0441) according to the manufacturer's instructions. […] During the first incubation, 50 μL standards of known p-FAK (Y397) content and compound treated samples (10 μL lysate) plus 40 μL diluent buffer were pipetted into the wells and let the p-FAK antigen standards and samples bind to the immobilized (capture) antibody on the plate, a rabbit antibody specific for p-FAK (Y397) 50 μL/well was added to the wells, this antibody serves as a detection antibody by binding to the p-FAK protein during a 3 hr. incubation at room temperature. After washing 4 times, a horseradish peroxidase labeled anti-rabbit IgG was added. This binds to the detection antibody. After a 30 min. incubation and washing to remove all the unbound enzyme, a substrate solution (TMB) was added, which was acted upon by the bound enzyme to produce color.

A word on the IC50: it is the concentration that gives 50% inhibition. What is called EC50 is the midpoint of the concentration-response curve.

Where only a bound is given, the exact number is not on record here.

BTK phosphorylation at tyrosine 223, sequence (Q06187 whole entry): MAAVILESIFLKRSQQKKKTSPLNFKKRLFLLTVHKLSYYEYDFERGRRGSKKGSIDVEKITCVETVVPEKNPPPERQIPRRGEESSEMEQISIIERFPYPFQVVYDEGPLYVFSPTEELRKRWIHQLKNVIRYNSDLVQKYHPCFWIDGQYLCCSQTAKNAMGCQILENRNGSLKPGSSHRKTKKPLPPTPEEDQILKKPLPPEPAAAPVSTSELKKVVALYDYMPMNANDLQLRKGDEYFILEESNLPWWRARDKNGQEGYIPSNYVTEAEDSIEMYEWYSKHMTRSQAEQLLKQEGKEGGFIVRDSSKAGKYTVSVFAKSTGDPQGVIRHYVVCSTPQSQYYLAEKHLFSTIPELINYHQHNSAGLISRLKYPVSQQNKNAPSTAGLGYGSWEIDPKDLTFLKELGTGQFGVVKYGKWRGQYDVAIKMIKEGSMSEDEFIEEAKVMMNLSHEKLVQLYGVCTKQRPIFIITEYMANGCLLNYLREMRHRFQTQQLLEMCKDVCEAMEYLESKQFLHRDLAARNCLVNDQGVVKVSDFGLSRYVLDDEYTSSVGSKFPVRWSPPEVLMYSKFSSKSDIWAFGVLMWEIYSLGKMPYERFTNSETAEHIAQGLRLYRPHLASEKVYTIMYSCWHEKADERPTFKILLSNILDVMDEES
BTK wt, sequence (Q06187 whole entry): as above
EGFR wt, sequence (P00533 25-1210): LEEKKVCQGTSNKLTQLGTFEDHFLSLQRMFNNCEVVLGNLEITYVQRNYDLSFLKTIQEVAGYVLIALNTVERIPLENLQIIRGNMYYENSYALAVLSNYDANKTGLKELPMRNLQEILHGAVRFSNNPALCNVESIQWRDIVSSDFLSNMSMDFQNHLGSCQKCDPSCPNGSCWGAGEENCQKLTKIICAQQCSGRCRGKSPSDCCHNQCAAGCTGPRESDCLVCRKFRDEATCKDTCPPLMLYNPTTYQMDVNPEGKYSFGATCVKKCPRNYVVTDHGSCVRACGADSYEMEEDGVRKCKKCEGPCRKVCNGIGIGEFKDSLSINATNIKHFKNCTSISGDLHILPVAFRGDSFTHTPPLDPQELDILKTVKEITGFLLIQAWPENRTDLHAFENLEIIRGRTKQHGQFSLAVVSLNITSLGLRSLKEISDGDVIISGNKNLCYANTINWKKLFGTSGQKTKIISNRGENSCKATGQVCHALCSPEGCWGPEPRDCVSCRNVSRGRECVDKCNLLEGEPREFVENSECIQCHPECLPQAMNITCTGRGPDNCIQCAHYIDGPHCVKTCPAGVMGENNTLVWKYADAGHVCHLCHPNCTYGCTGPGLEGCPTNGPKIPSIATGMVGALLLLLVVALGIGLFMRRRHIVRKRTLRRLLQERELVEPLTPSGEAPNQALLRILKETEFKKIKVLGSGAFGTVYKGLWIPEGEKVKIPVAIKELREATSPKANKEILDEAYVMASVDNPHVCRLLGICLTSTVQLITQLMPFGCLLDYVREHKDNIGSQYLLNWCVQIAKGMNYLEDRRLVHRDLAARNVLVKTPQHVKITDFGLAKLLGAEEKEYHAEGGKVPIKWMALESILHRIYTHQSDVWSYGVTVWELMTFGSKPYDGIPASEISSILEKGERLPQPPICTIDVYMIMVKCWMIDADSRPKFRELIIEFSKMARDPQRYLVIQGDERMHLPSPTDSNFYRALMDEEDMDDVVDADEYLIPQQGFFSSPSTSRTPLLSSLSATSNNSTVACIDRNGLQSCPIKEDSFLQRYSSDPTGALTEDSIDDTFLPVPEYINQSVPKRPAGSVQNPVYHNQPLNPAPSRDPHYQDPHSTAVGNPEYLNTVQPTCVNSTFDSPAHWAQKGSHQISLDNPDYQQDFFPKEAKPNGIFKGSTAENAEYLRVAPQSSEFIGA
ITK, sequence (Q08881 whole entry): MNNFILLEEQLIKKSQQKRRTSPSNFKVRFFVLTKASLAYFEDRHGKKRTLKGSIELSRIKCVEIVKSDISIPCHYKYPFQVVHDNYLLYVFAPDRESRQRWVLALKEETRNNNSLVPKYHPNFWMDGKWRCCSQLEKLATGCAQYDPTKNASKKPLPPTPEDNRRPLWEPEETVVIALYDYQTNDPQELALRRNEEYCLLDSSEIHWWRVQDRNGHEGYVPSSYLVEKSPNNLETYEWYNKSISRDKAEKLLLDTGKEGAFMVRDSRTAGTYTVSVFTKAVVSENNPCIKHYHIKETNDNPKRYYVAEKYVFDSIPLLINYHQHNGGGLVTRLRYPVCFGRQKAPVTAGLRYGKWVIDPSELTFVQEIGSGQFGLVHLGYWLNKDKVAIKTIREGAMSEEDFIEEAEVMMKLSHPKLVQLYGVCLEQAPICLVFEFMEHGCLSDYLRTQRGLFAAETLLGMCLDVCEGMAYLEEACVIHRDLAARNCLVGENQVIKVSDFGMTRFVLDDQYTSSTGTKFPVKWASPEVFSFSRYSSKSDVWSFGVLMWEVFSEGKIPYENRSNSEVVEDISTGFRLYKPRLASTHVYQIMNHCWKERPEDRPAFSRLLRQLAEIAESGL
FAK, sequence (Q05397 whole entry): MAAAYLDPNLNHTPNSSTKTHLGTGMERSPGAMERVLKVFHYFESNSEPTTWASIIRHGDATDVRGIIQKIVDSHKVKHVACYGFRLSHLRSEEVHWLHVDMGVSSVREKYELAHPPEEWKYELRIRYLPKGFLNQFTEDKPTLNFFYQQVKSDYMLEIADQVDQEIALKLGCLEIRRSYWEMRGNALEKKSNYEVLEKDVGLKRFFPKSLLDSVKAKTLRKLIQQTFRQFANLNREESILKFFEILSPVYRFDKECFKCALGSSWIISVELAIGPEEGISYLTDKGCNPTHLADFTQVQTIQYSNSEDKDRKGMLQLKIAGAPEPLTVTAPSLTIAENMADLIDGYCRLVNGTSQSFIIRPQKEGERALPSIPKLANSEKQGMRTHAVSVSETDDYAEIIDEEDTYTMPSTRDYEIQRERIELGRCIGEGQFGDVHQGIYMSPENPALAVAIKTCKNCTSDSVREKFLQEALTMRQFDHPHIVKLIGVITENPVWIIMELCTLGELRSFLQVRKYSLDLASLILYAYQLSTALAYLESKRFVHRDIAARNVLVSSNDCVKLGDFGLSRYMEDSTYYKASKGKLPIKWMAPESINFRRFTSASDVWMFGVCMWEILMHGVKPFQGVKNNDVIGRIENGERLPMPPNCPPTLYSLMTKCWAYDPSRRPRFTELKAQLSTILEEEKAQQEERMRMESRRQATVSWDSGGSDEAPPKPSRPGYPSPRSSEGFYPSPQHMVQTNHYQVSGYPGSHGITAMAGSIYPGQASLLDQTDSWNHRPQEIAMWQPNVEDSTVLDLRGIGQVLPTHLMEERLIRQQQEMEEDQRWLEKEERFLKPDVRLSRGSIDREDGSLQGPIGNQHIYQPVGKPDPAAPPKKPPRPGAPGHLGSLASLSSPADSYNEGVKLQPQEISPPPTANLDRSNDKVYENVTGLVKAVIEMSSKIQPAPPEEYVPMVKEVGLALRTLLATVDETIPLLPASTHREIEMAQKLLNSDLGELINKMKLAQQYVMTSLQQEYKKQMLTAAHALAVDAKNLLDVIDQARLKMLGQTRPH
BMX, sequence (P51813 whole entry): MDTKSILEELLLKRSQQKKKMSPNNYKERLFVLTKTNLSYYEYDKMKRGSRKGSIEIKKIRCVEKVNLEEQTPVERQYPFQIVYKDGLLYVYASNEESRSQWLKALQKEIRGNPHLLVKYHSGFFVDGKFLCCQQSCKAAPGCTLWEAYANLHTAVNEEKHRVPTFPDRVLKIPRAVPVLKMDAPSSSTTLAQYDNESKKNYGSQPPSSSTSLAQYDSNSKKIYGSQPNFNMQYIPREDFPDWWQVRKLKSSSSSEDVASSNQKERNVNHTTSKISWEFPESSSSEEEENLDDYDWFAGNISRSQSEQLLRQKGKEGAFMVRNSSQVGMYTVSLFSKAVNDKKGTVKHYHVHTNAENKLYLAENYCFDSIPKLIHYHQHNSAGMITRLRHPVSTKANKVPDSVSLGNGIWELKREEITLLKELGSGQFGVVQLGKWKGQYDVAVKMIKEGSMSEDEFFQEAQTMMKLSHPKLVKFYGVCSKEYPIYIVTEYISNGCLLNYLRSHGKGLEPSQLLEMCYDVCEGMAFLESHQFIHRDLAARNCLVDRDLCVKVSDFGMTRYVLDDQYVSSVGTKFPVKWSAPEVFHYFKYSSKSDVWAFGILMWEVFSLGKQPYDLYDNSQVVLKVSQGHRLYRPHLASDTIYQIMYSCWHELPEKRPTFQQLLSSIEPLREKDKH
FAK phosphorylation at tyrosine 397, sequence (Q05397 whole entry): as the sequence (Q05397 whole entry) above
Experimental for EGFR wt: Then, Kinase assays were performed using the “HotSpot” assay platform.
Briefly, specific kinase/substrate pairs along with required cofactors were prepared in reaction buffer; 20 mM Hepes pH 7.5, 10 mM MgCl2, 1 mM EGTA, 0.02% Brij35, 0.02 mg/ml BSA, 0.1 mM Na3VO4, 2 mM DTT, 1% DMSO. Compounds were delivered into the reaction, followed about 20 minutes later by addition of a mixture of ATP (Sigma, St. Louis Mo.) and ^33P ATP (Perkin Elmer, Waltham Mass.) to a final concentration of 10 μM.
Reactions were carried out at room temperature for 120 min, followed by spotting of the reactions onto P81 ion exchange filter paper (Whatman Inc., Piscataway, N.J.). Unbound phosphate was removed by extensive washing of filters in 0.75% phosphoric acid. […] IC50 values and curve fits were obtained using Prism (GraphPad Software).

For `C=CC(=O)N1CCC[C@@H](Nc2nc(Nc3ccc4c(c3)OCCOCCOCCO4)ncc2F)C1` [Compound-2, 1-[(3R)-3-[[5-fluoro-2-(2,5,8,11-tetraoxabicyclo[10.4.0]hexadeca-1(12),13,15-trien-14-ylamino)pyrimidin-4-yl]amino]-1-piperidyl]prop-2-en-1-one], the IC50 is 8.46 nM at BMX; over 1000 nM against ITK; over 1000 nM against EGFR wt; over 3000 nM in the assay on MDA-MB-231 cells; over 1000 nM at FAK; 73.4 nM on BTK wt. In the assay on EOL-1 cells, this molecule yielded an IC50 of 2000 nM. Besides, the EC50 in assay [1] fell in the range of 100 to 1000 nM.

For the molecule `C=CC(=O)N1CCC[C@@H](Nc2nc(Nc3ccc4c(c3)OCCOCCOCCO4)nc3[nH]cnc23)C1` [Compound-3, 1-[(3R)-3-[[2-(2,5,8,11-tetraoxabicyclo[10.4.0]hexadeca-1(12),13,15-trien-14-ylamino)-9H-purin-6-yl]amino]-1-piperidyl]prop-2-en-1-one], the IC50 against BMX is 1.69 nM; against ITK it was 39.6 nM; on EGFR wt, 345 nM; in the assay on MDA-MB-231 cells, over 3000 nM; on FAK it was 1240 nM; on BTK wt, 3.17 nM. Moreover, the IC50 in the assay with EOL-1 cells is over 3000 nM. This molecule also yielded a half-maximal effective concentration (EC50) in assay [1] of under 100 nM.

`C=CC(=O)Nc1cccc(Nc2nc(Nc3ccc(OCCCOC4(CC)OCC(C)(C)CO4)cc3)ncc2F)c1` [Compound-5, N-[3-[[2-[4-[3-[(2-ethyl-5,5-dimethyl-1,3-dioxan-2yl)oxy]propoxy]anilino]-5-fluoro-pyrimidin-4-yl]amino]phenyl]prop-2-enamide]: the IC50 on BMX is under 100 nM; against ITK, under 100 nM; at EGFR wt, over 100 nM; in the assay on MDA-MB-231 cells, 3000 nM; on FAK, over 100 nM; against BTK wt, under 100 nM. The molecule also had an IC50 with EOL-1 cells of 1900 nM. The molecule also registered an EC50 in [1] of under 100 nM.

Consider `C=CC(=O)Nc1cccc(Nc2nc(Nc3ccc4c(c3)OCCOCCOCCO4)nc3[nH]cnc23)c1` [Compound-7, N-[3-[[2-(2,5,8,11-tetraoxabicyclo[10.4.0]hexadeca-1(12),13,15-trien-14-ylamino)-9H-purin-6-yl]amino]phenyl]prop-2-enamide], for which the IC50 is 0.41 nM against BMX; 1.35 nM at ITK; 208 nM at EGFR wt; over 3000 nM in the assay with MDA-MB-231 cells; 274 nM on FAK; 0.65 nM at BTK wt. The molecule also gave an IC50 in the assay on EOL-1 cells of 2500 nM. In assay [1], this molecule had an EC50 of under 100 nM.

With `CCC(=O)Nc1cccc(Nc2nc(Nc3ccc4c(c3)OCCOCCOCCO4)nc3[nH]cnc23)c1` [Compound-8, N-[3-[[2-(2,5,8,11-tetraoxabicyclo[10.4.0]hexadeca-1(12),13,15-trien-14-ylamino)-9H-purin-6-yl]amino]phenyl]propanamide], the IC50 at BMX is 46.4 nM; on ITK it was 1290 nM; at EGFR wt, over 1000 nM; at FAK it was 1130 nM; at BTK wt, 88.8 nM. This molecule also showed an EC50 in assay [1] of 100 to 1000 nM.

As to `C=CC(=O)Nc1ccccc1Nc1nc(Nc2ccc3c(c2)OCCOCCOCCO3)ncc1F` [Compound-10, N-[2-[[5-fluoro-2-(2,5,8,11-tetraoxabicyclo[10.4.0]hexadeca-1(12),13,15-trien-14-ylamino)pyrimidin-4-yl]amino]phenyl]prop-2-enamide], the IC50 on BMX was over 100 nM; on ITK, over 100 nM; on EGFR wt it was over 100 nM; at FAK, over 100 nM; on BTK wt, under 100 nM. Also, the EC50 in assay [1] fell in the range of 100 to 1000 nM.

Turning to `CN([C@@H]1CCC[C@H]1Oc1nc(Nc2ccc3c(c2)OCCOCCOCCO3)nc2[nH]ncc12)S(C)(=O)=O` [Compound-19, N-methyl-N-[(1R,2R)-2-[[6-(2,5,8,11-tetraoxabicyclo[10.4.0]hexadeca-1(16),12,14-trien-14-ylamino)-1H-pyrazolo[3,4-d]pyrimidin-4-yl]oxy]cyclopentyl]methanesulfonamide], the EC50 in assay [2] lay in the range of 100 to 1000 nM. Further, the IC50 was over 1000 nM against EGFR wt; 2500 nM in the assay on MDA-MB-231 cells; 13.4 nM on FAK; 68.2 nM against BTK wt; 350 nM in the assay on EOL-1 cells.

As for `CN(c1cnccc1CNc1nc(Nc2ccc3c(c2)OCCOCCOCCO3)nc2[nH]ccc12)S(C)(=O)=O` [Compound-20, N-methyl-N-[4-[[[2-(2,5,8,11-tetraoxabicyclo[10.4.0]hexadeca-1(16),12,14-trien-14-ylamino)-7H-pyrrolo[2,3-d]pyrimidin-4-yl]amino]methyl]-3-pyridyl]methanesulfonamide], in assay [2], the EC50 fell in the range of 100 to 1000 nM. Also, the IC50 against EGFR wt was over 1000 nM; with MDA-MB-231 cells, over 3000 nM; on FAK it was 29.4 nM; against BTK wt, over 1000 nM; with EOL-1 cells it was 2250 nM.
